Assay results: US6156790A, “C-10 carbon-substituted artemisinin-like trioxane compounds having antimalarial, antiproliferative and antitumor activities” (priority 1997, dated 2000)
“Also recorded” adds a separate entry of the source. Like-named read-outs stand apart in the source and are kept apart here.

Tests used:
MOLT-4 = assay: cells; details: Homo sapiens
Procedure: The screening assay is performed on a 96-well microtitre plates.
Dose response curves, shown in the above mentioned Figures, are obtained by exposing various cancer cell lines to compounds having a known concentration ([log10 M]), as discussed in detail above, and then plotting the percentage growth of each cell line for each concentration. […] As discussed previously, the five drug dilutions routinely tested range from 10^-4 to 10^-9 molar.

SR = assay: cells; format: cell-based; details: Homo sapiens; for IC (TGI): read-out: Log10 TGI (converted)
A549/ATCC = assay: NCI 60 cell line screen (SRB), non-small cell lung cancer; format: cell-based; details: Homo sapiens; for GI50: read-out: Log10 GI50 (converted); for IC (TGI): read-out: Log10 TGI (converted)
EKVX = assay: as above; format: cell-based; details: Homo sapiens; for IC (TGI): read-out: Log10 TGI (converted)
HOP-62 = assay: cells; format: cell-based; details: Homo sapiens
HOP-92 = assay: NCI 60 cell line screen (SRB), non-small cell lung cancer; format: cell-based; details: Homo sapiens
NCI-H226 = assay: as above; format: cell-based; details: Homo sapiens
NCI-H23 = assay: as above; format: cell-based; details: Homo sapiens; for IC (TGI): read-out: Log10 TGI (converted)
NCI-H460 = assay: cells; format: cell-based; details: Homo sapiens, NCI-H460; for CC50: read-out: Log10 LC50 (converted)
HCT-116 = assay: cells; format: cell-based; details: Homo sapiens; for CC50: read-out: Log10 LC50 (converted)
HCT-15 = assay: cells; format: cell-based; details: Homo sapiens, HCT-15
HT29 = assay: cells; format: cell-based; details: Homo sapiens
KM12 = assay: cells; format: cell-based; details: Homo sapiens, read-out: Log10 TGI (converted)
SW-620 = assay: NCI 60 cell line screen (SRB), colon cancer; format: cell-based; details: Homo sapiens; for CC50: read-out: Log10 LC50 (converted); for IC (TGI): read-out: Log10 TGI (converted)
SF-268 = assay: NCI 60 cell line screen (SRB), CNS cancer; format: cell-based; details: Homo sapiens, read-out: Log10 GI50 (converted)
SNB-19 = assay: cells; format: cell-based; details: Homo sapiens
SNB-75 = assay: cells; format: cell-based; details: Homo sapiens
U251 = assay: cells; format: cell-based; details: Homo sapiens; for CC50: U-251, read-out: Log10 LC50 (converted); for IC (TGI): U-251, read-out: Log10 TGI (converted)
SK-MEL-2 = assay: cells; format: cell-based; details: Homo sapiens; for IC (TGI): read-out: Log10 TGI (converted)
OVCAR-3 = assay: NCI 60 cell line screen (SRB), ovarian cancer; format: cell-based; details: Homo sapiens, read-out: Log10 GI50 (converted)
OVCAR-8 = assay: NCI 60 cell line screen (SRB), ovarian cancer; format: cell-based; details: Homo sapiens; for IC (TGI): read-out: Log10 TGI (converted)
A498 = assay: cells; format: cell-based; details: Homo sapiens
TK-10 = assay: cells; format: cell-based; details: Homo sapiens
UO-31 = assay: NCI 60 cell line screen (SRB), renal cancer; format: cell-based; details: Homo sapiens; for GI50: read-out: Log10 GI50 (converted); for CC50: read-out: Log10 LC50 (converted); for IC (TGI): read-out: Log10 TGI (converted)
PC-3 = assay: cells; format: cell-based; details: Homo sapiens, PC-3; for GI50: read-out: Log10 GI50 (converted)
MCF7 = assay: cells; format: cell-based; details: Homo sapiens, MCF7
MDA-MB231/ATCC = assay: cells; format: cell-based; details: Homo sapiens; for IC (TGI): MDA-MB-231, read-out: Log10 TGI (converted)
MDA-MB-435 = assay: cells; format: cell-based; details: Homo sapiens
MDA-N = assay: cells; format: cell-based; details: Homo sapiens
BT-549 = assay: cells; format: cell-based; details: Homo sapiens; for GI50: read-out: Log10 GI50 (converted); for IC (TGI): read-out: Log10 TGI (converted)
T-47D = assay: cells; format: cell-based; details: Homo sapiens, T47D, T-47D
60 cell line panel = assay: NCI 60 cell line screen, whole panel; format: cell-based
IGROVI = assay: cells; details: 60 cell; for GI50: read-out: Log10 GI50 (converted); for IC (TGI): read-out: Log10 TGI
ACHN = assay: cells; details: Homo sapiens; for CC50: read-out: Log10 LC50 (converted); for IC (TGI): read-out: Log10 TGI
RXF 393 = assay: cells; details: Homo sapiens; for GI50: RXF 393, read-out: Log10 GI50 (converted)
M14 = assay: NCI 60 cell line screen (SRB), melanoma; details: Homo sapiens
[1] = MOLT-4, read-out: concentration for primary growth inhibition
[2] = read-out: Log10 GI50 (converted)
[3] = read-out: Log10 TGI (converted)
[4] = read-out: Log10 LC50 (converted)

## C[C@H]1[C@@H](F)O[C@@H]2O[C@@]3(C)CC[C@H]4[C@H](C)CC[C@@H]1[C@@]24OO3 [Compound VI, 10β-Fluorodeoxoartemisinin]
MOLT-4; MOLT-4, read-out: Log10 GI50 (converted)
  GI50: 0.427 µM
MOLT-4; MOLT-4, read-out: Log10 TGI
  IC (TGI): 36.3 µM
MOLT-4; [1]
  GI50: ~0.1 µM
SR; [2]
  GI50: 0.427 µM
SR
  IC (TGI): 13.8 µM
A549/ATCC
  GI50: 6.03 µM
  IC (TGI): 30.9 µM
EKVX; [2]
  GI50: 2.95 µM
EKVX
  IC (TGI): 89.1 µM
HOP-62; [2]
  GI50: 12.9 µM
HOP-92; [2]
  GI50: 2.95 µM
NCI-H226; [2]
  GI50: 5.75 µM
NCI-H23; [2]
  GI50: 0.631 µM
NCI-H23
  IC (TGI): 25.1 µM
NCI-H460; [2]
  GI50: 0.813 µM
NCI-H460
  CC50: 55 µM
NCI-H460; [3]
  IC (TGI): 19.1 µM
HCT-116; [2]
  GI50: 0.195 µM
HCT-116
  CC50: 42.7 µM
HCT-15; [2]
  GI50: 0.339 µM
HCT-15; [3]
  IC (TGI): 51.3 µM
HT29; HT-29, read-out: Log10 GI50 (converted)
  GI50: 0.407 µM
KM12
  IC (TGI): 26.9 µM
SW-620; [2]
  GI50: 0.398 µM
SW-620
  CC50: 63.1 µM
  IC (TGI): 15.5 µM
SF-268
  GI50: 13.8 µM
SNB-19; [2]
  GI50: 871 µM
SNB-75; [2]
  GI50: 14.5 µM
U251; U-251, read-out: Log10 GI50 (converted)
  GI50: 0.447 µM
U251
  CC50: 42.7 µM
  IC (TGI): 16.2 µM
SK-MEL-2; [2]
  GI50: 7.59 µM
SK-MEL-2
  IC (TGI): 77.6 µM
OVCAR-3
  GI50: 2.88 µM
OVCAR-8; [2]
  GI50: 2.04 µM
OVCAR-8
  IC (TGI): 51.3 µM
A498; [2]
  GI50: 28.2 µM
TK-10; [2]
  GI50: 11 µM
TK-10; [3]
  IC (TGI): 37.2 µM
UO-31
  GI50: 1.1 µM
  CC50: 25.1 µM
  IC (TGI): 5.01 µM
PC-3
  GI50: 0.251 µM
PC-3; [3]
  IC (TGI): 46.8 µM
MCF7; [2]
  GI50: 0.525 µM
MDA-MB231/ATCC
  IC (TGI): 56.2 µM
MDA-MB-435; [2]
  GI50: 0.692 µM
MDA-MB-435; [4]
  CC50: 34.7 µM
MDA-MB-435; [3]
  IC (TGI): 7.24 µM
MDA-N; [2]
  GI50: 1.15 µM
BT-549
  GI50: 0.759 µM
  IC (TGI): 30.9 µM
T-47D; [2]
  GI50: 0.302 µM
T-47D; [3]
  IC (TGI): 47.9 µM
60 cell line panel; 60 cell, mean over panel, read-out: Log10 TGI MG MID (converted)
  IC (TGI): 41.7 µM
60 cell line panel; Homo sapiens, 60 cell, mean over panel, read-out: Log10 LC50 MG MID (converted)
  CC50: 93.3 µM
60 cell line panel; Tables III, IV and V
  potency compared with artemisinin: more potent than artemisinin
  potency compared with paclitaxel: in most instances are as potent and in some instances more potent than paclitaxel; also recorded: equivalent to and in many instances higher in potency than paclitaxel
IGROVI
  GI50: 1.23 µM
  IC (TGI): 18.2 µM
ACHN; [2]
  GI50: 1.02 µM
ACHN
  CC50: 38.9 µM
  IC (TGI): 12.6 µM
RXF 393
  GI50: 14.8 µM
M14; M14, read-out: Log10 GI50 (converted)
  GI50: 17.4 µM

## C[C@@H]1CC[C@H]2[C@@H](C)C(=O)O[C@@H]3O[C@@]4(C)CC[C@@H]1[C@]32OO4 [Artemisinin]
MOLT-4; MOLT-4, read-out: Log10 LC50 (converted)
  CC50: > 100 µM
MOLT-4; MOLT-4, read-out: concentration for cytostasis
  IC (TGI): > 100 µM
MOLT-4; MOLT-4, read-out: concentration for cytotoxicity
  CC50: > 100 µM
MOLT-4; [1]
  GI50: > 100 µM
SR
  IC (TGI): > 100 µM
A549/ATCC
  GI50: 67.6 µM
  IC (TGI): > 100 µM
A549/ATCC; [4]
  CC50: > 100 µM
EKVX; [4]
  CC50: > 100 µM
EKVX
  IC (TGI): > 100 µM
HOP-62; [4]
  CC50: > 100 µM
HOP-62; [3]
  IC (TGI): > 100 µM
HOP-92; [4]
  CC50: > 100 µM
HOP-92; [3]
  IC (TGI): > 100 µM
NCI-H226; [4]
  CC50: > 100 µM
NCI-H226; [3]
  IC (TGI): > 100 µM
NCI-H23
  IC (TGI): > 100 µM
NCI-H460
  CC50: > 100 µM
HCT-116
  CC50: > 100 µM
HCT-116; [3]
  IC (TGI): > 100 µM
HCT-15; [4]
  CC50: > 100 µM
HT29; HT-29, read-out: Log10 TGI (converted)
  IC (TGI): > 100 µM
KM12
  IC (TGI): > 100 µM
SW-620
  CC50: > 100 µM
  IC (TGI): > 100 µM
SNB-19; [4]
  CC50: > 100 µM
SNB-75; [3]
  IC (TGI): > 100 µM
U251
  CC50: > 100 µM
  IC (TGI): > 100 µM
SK-MEL-2; [4]
  CC50: > 100 µM
SK-MEL-2
  IC (TGI): > 100 µM
OVCAR-8; [4]
  CC50: > 100 µM
OVCAR-8
  IC (TGI): > 100 µM
A498; [4]
  CC50: > 100 µM
TK-10; [4]
  CC50: > 100 µM
UO-31
  GI50: 87.1 µM
  CC50: > 100 µM
  IC (TGI): 100 µM
PC-3
  GI50: 67.6 µM
PC-3; [4]
  CC50: > 100 µM
MCF7; [4]
  CC50: > 100 µM
MDA-MB231/ATCC; MDA-MB-231, read-out: Log10 GI50 (converted)
  GI50: 63.1 µM
MDA-MB231/ATCC; MDA-MB-231, read-out: Log10 LC50 (converted)
  CC50: > 100 µM
MDA-MB231/ATCC
  IC (TGI): 100 µM
MDA-N; [4]
  CC50: > 100 µM
MDA-N; [3]
  IC (TGI): > 100 µM
BT-549
  GI50: 87.1 µM
  IC (TGI): 100 µM
BT-549; [4]
  CC50: > 100 µM
T-47D; [4]
  CC50: > 100 µM
60 cell line panel; 60 cell, panel, read-out: Log10 GI50 Delta (converted)
  GI50: 85.1 µM
60 cell line panel; panel
  Log10 LC50 Delta: -4.00
  Log10 TGI Delta: -4.00
  Log10 TGI Range: 0.06
IGROVI
  GI50: 49 µM
  IC (TGI): > 100 µM
ACHN
  CC50: > 100 µM
  IC (TGI): > 100 µM
RXF 393
  GI50: 83.2 µM
RXF 393; RXF 393, read-out: Log10 LC50 (converted)
  CC50: > 100 µM
M14; M14, read-out: Log10 TGI
  IC (TGI): > 100 µM
